Source: PubChem BioAssay (NCI)
“And” between values parts separate entries of the source, which are not always exact repeats. Equal values may be shown once.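 Briefly, cells in 96-well plates were exposed to five compound concentrations for 48 h, and endpoints were estimated by linear interpolation. Abbreviation: GI50, concentration required for 50% inhibition of growth. TGI: concentration producing complete growth inhibition.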

What was measured:
Test in all cases: NCI anticancer screen, dose series, 48 h
[1] = test system: SK-MEL-2 melanoma
[2] = test system: OVCAR-4 ovarian
[3] = test system: T-47D breast
[4] = test system: SNB-19 CNS
[5] = test system: EKVX NSCLC
[6] = test system: DU-145 prostate
[7] = test system: HCT-116 colon
[8] = test system: NCI/ADR-RES ovarian
[9] = test system: SK-OV-3 ovarian
[10] = test system: HL-60(TB) leukemia

Row | SMILES | GI50 [1] | TGI [1] | GI50 [2] | TGI [2] | GI50 [3] | TGI [3] | GI50 [4] | TGI [4] | GI50 [5] | TGI [5] | GI50 [6] | TGI [6] | GI50 [7] | TGI [7] | GI50 [8] | TGI [8] | GI50 [9] | TGI [9] | GI50 [10] | TGI [10]
1 | C=C1C(=O)O[C@H]2[C@H]1CC/C(COC(=O)OCCCCCOC(=O)OC/C1=C/CC[C@@]3(C)O[C@H]3[C@H]3OC(=O)C(=C)[C@@H]3CC1)=C\CC[C@@]1(C)O[C@@H]21 | 1.37 µM | 3.31 µM | 0.683 µM | 2.15 µM | 0.244 µM | 0.75 µM | 2.1 µM | 7.71 µM | 1.12 µM | 3.32 µM | 1.04 µM | 2.3 µM | 0.174 µM | 0.5 µM | 2.34 µM | 9.58 µM | 2.93 µM | 9.67 µM | 0.281 µM | 0.793 µM
2 | CC1=CC[C@@H]2[C@@H](CC[C@@]2(C)O)C(C)(C)[C@H]1CC[C@@H]1[C@@]2(C)CCC(=O)C(C)(C)O[C@@H]2CC[C@]1(C)O | – | > 100 µM | – | > 100 µM | – | > 100 µM | – | > 100 µM | – | > 100 µM | – | > 100 µM | – | 42 µM | – | 60.9 µM | – | > 100 µM | – | 35 µM
3 | CCCC[C@@H]1NC(=O)[C@H](CCCCN)NC(=O)[C@H](CCCNC(=N)N)NC(=O)[C@H](CC(C)C)NC(=O)[C@@H](NC(=O)[C@H](Cc2cccc(Cl)c2)NC(=O)[C@@H]2CCCN2C(=O)[C@@H](NC(C)=O)C(C)C)CCSSC[C@@H](C(=O)N[C@@H](CCCCN)C(=O)N2CCC[C@H]2C(=O)N2CCC[C@H]2C(=O)N[C@@H](CCC(=O)O)C(N)=O)NC(=O)[C@H](Cc2ccccc2)NC(=O)[C@H](CO)NC(=O)[C@H](C)NC(=O)[C@@H]2CCCN2C1=O | > 50 µM | > 50 µM | > 50 µM | > 50 µM | > 50 µM | > 50 µM | > 50 µM | > 50 µM | > 50 µM | > 50 µM | > 50 µM | > 50 µM | > 50 µM | > 50 µM | > 50 µM | > 50 µM | > 50 µM | > 50 µM | > 50 µM | > 50 µM
4 | CC1(C)CCC(S(=O)(=O)c2ccc3c(c2)/C(=N\O)c2cc(S(=O)(=O)N4CCC(O)(c5cccc(C(F)(F)F)c5)CC4)ccc2-3)CC1 | 0.0179 µM | 0.0364 µM | 0.0251 µM | 0.0744 µM | 0.0192 µM | 0.0414 µM | 0.0673 µM | 0.215 µM | 0.0329 µM | 0.408 µM | 0.0319 µM | 0.115 µM | 0.0163 µM | 0.0327 µM | 3.14 µM | – | 0.0238 µM | 0.0593 µM | 0.0203 µM | 0.0681 µM
5 | O=C(Cn1ccnc1[N+](=O)[O-])N(CCO)CCO | > 1250 µM | 250 µM and > 1250 µM | > 1250 µM | > 1250 µM | – | > 250 µM | > 1250 µM | > 1250 µM | > 1250 µM | > 1250 µM | – | > 250 µM | > 1250 µM | > 1250 µM | > 1250 µM | > 1250 µM | > 58 µM | > 250 µM | > 1250 µM | > 1250 µM
6 | Cn1ncc2c(Nc3ccc(Br)cc3)nc(Nc3ccc(Br)cc3)nc21 | 2.89 µM | 8.56 µM | 3.51 µM | 16.1 µM | 2.7 µM | 14.6 µM | 6.42 µM | 18.9 µM | 2.48 µM | 9.73 µM | 3.65 µM | 13 µM | 3.22 µM | 11.9 µM | 3.64 µM | 16.1 µM | 10.9 µM | 23.5 µM | 1.44 µM | 5.85 µM
7 | COc1ccc(OC)c(/C=C/[N+](=O)[O-])c1 | – | 5.48 µM and 9.88 µM | – | 8.89 µM and 8.72 µM | – | 46.8 µM | – | 15.2 µM and 9.89 µM | 2.42 µM and 6.47 µM | 6.18 µM and 16.7 µM | 2.57 µM | 8.37 µM and 10.5 µM | – | 12.7 µM and 6.06 µM | – | 21 µM | – | 26.2 µM and 10.3 µM | 1.66 µM and 0.651 µM | 4.5 µM and 2.79 µM
8 | Cc1cc(N(CCCl)CCCl)ccc1C=Nc1cccnc1 | 7.57 µM | > 50.1 µM | 22.4 µM | > 100 µM | 1.6 µM | > 73.2 µM | 59.9 µM | > 100 µM | 30 µM | 98.9 µM | 4.62 µM | 42.9 µM | 22.7 µM | > 100 µM | 12.1 µM | > 95.4 µM | 7.57 µM | > 59.3 µM | 1.58 µM | 30 µM
9 | CCOc1ccc(NC(=O)Nc2cc(C(C)C)ccc2C)cc1 | 18 µM | 55.6 µM | 3.33 µM | 11.5 µM | 8.94 µM | > 100 µM | 10.4 µM | 39 µM | 8.55 µM | > 96.7 µM | 9.57 µM | > 58.4 µM | 5.73 µM | 16.1 µM | 6.96 µM | 44.7 µM | 12.3 µM | 35.4 µM | > 57.9 µM | > 100 µM
